The test system of one assay is HFF1 cells. The assay can be described thus: Percentage of mitotic HFF1 cells with paclitaxel +/- C75. The format is cell-based. The source says:
FIG. 3A) is a line graph showing the percentage of mitotic HeLa or HFF1 cells treated with a range of paclitaxel (Taxol™; tubulin-targeting drug) concentrations+/−C75 as indicated. The bars indicate standard deviation. FIG. 3B) is a series of bar graphs showing the proportion of HCT116 cells that have monopolar spindles, bipolar spindles with aligned chromosomes, bipolar spindles with misaligned chromosomes and multipolar/fragmented spindles after treatments as shown. Treatments include DMSO (control), varying concentrations of paclitaxel and/or varying concentrations of C75 after 7 hours. While treatment of HCT116 cells with 2.5 nM paclitaxel caused a threshold of mitotic spindle phenotypes, adding increasing concentrations of C75 in combination with 2.5 nM paclitaxel caused the phenotypes to progressively worsen. FIG. 3C) is bar graph showing the average distance between centrosome fragments in HCT116 cells after treatments as shown. While centrosome fragments moved closer together with increased concentrations of paclitaxel, they moved further apart with increased concentrations of C75. […] FIG. 3E) is a line graph showing the percentage of mitotic HeLa or HFF1 cells treated with a range of nocodazole concentrations+/−C75 as indicated. The bars indicate standard deviation. […]

Assay [1] deals with BT549 (breast ductal carcinoma) cells. As to the kind of experiment: IC50 (viability) in BT549 cells. The format is cell-based. To be noted: Homo sapiens, BT-549. The protocol: (§1) 19 variants with different structural modifications have been made. […] In particular, it is shown that C75 causes death in multiple cancer cells with IC50 values in the 100 nM range, including breast cancers (MCF7, BT549), lung cancer (A549), colorectal cancer (HCT116) in addition to HeLa cells (cervical cancer).

For another assay, the system named is MCF-7 cells. As to the kind of experiment: Mitotic spindle phenotype in MCF-7 cells. Format: cell-based, human. To be noted: MCF-7, 300 nM, 6-8 hours. The procedure:
(§2) FIG. 2A) is a line graph showing the percentage of HCT116 (p53−/−) cells, A549 cells, HeLa cells and H1299 cells in mitosis after treatment with various concentrations of C75 for one population doubling time. All of the cell lines show an increase in the proportion of mitotic cells after treatment with 200 nM C75. The bars indicate standard deviation. […] While the mitotic spindles were not dramatically altered by C75 in HFF1 cells, they were monopolar (as shown) or fragmented in the other cell types. […] The mitotic spindles were more strongly fragmented after C75 treatment in these cells vs. the cells in FIG. 2B). […] While mitotic spindles recovered bipolarity after removing nocodazole, they remained multipolar after removing C75. FIG. 2F) is a series of time-lapse images of a live HeLa cell expressing GFP:tubulin after treatment with C75 as shown in 2D) and 2E). The scale bar for all cells is 10 μm. FIG. 2G) is a schematic showing the putative target for C75. […]
(§3) C75 was also tested for efficacy in different cancer cell lines. […] To further assess the role of C75 in affecting centrosomes, HeLa cells were treated with C75 for a short period of time (5 minutes), then C75 was removed and the cells were analyzed for spindle phenotypes (schematic in FIG. 2D). […]

In assay [2] the test system is HFF1 (fibroblast) non-cancer cells. As to the kind of experiment: IC50 (viability) in HFF1 non-cancer cells. The format is cell-based. To be noted: Homo sapiens; HFF-1 non-cancer cells. The procedure: as §1
Assay [3] deals with HCT116 (colorectal cancer) cells. As to the kind of experiment: IC50 (cell death) in HCT116 cells. To be noted: Homo sapiens, HCT-116; stated jointly for MCF7, BT549, A549, HCT116 and HeLa; HCT116 not in Table 3; read-out: IC50 values (death in multiple cancer cells). Format: cell-based. The protocol:
as §1

Assay [4] deals with MCF-10A (mammary gland fibrocystic disease) non-cancer cells. As to the kind of experiment: IC50 (viability) in MCF-10A non-cancer cells. To be noted: Homo sapiens, MCF10A non-cancer cells. The format is cell-based. The procedure: as §1
Another assay relates to H1299 cells. The assay can be described thus: Mitotic spindle phenotype in H1299 cells. The format is cell-based, human. To be noted: H1299, 300 nM, 6-8 hours. The procedure:
as §2, §3

For assay [5], the system named is H1299 (non-small cell lung cancer) cells. As to the kind of experiment: Mitotic arrest (percentage of cells in mitosis) in H1299 cells. Format: cell-based, human. To be noted: H1299, least responsive line. The protocol:
as §2, §3

The next assay has as its system A549 cells. As to the kind of experiment: Mitotic arrest (percentage of cells in mitosis) in A549 cells. To be noted: A549, within one population doubling time. The format is cell-based, human. The protocol: as §2, §3

Take `COc1ccc(S(=O)(=O)N2Cc3ccccc3-c3sc(Br)cc32)cc1` [Compound C75]: the “effect of C75 on non-cancerous cells treated with paclitaxel” value in the assay with HFF1 cells was “protective effect”. Besides, the IC50 was 158 nM in assay [1], 467 nM in assay [2], roughly 100 nM in [3] and 309 nM in assay [4]. Further, the mitotic spindle phenotype entry was “mix of monopolar, bipolar and multipolar spindles” in the assay with MCF-7 cells; “mix of monopolar, bipolar and multipolar spindles” with H1299 cells. Moreover, the “concentration at which mitotic cells increase” value in assay [5] turned out to be 200 nM. The “concentration causing mitotic arrest” value in the assay with A549 cells was in the range of 100 to 200 nM.

As a reminder, the IC50 is the concentration that inhibits the measured activity by half.

(Values after US11034702B2, “Thienoisoquinolines and their derivatives for the treatment of cancer” (VALORBEC, SOCIÉTÉ EN COMMANDITE, priority 2016, dated 2021).)
